# From US20110294992A1, “METAL RESPONSIVE MRI-AGENTS” (The Regents of the University of California, priority 2010, published 2011)
# “And” between values parts separate entries of the source, which are not always exact repeats. Equal entries are not always repeated. Marks after values point to notes of the source that are not given here.
# Columns and labels:
# [1] = Longitudinal relaxivity (r1) from T1 measurements at 60 MHz, absence of copper; type: physicochemical; settings: for r1 (no Cu): no copper, 60 MHz, 20 mM HEPES buffer, pH 7, 37° C., 0.2 mM Gd^3+
# Experimental: (§1) The longitudinal relaxivity values for the CG contrast agents in the absence or presence of copper ions were determined using T1 measurements at 60 MHz. Studies were performed at 37° C. in 20 mM HEPES buffered to pH 7, and solutions of the purified CG sensors for relaxivity experiments contained 0.2 mM Gd^3+ as determined by ICP-OES. Spectroscopic data are collected in Table 1.
# Nuclear magnetic relaxation dispersion (NMRD) experiments provide supporting evidence for this proposal (vide infra).
# [2] = Dysprosium-induced 17O NMR shift (DIS) experiments for q; type: physicochemical; settings: 10% CH3CN in 20 mM HEPES pH 7
# Experimental: FIG. 8. Plot of [DyCG2] vs. −Δ ppm of the ^17O signal of H2O in the absence and presence of 1 equiv Cu^+. Spectra were acquired at room temperature in 20 mM HEPES buffer, pH 7, at a ^17O Larmor frequency of 67.8 MHz.
# To circumvent these issues, we turned our attention to an alternative method for obtaining q values, namely the application of ^17O NMR spectroscopy to Dy^3+ analogs of the CG sensors (DyCG2-6).^114 Specifically, interactions of water ligands with paramagnetic Dy^3+ ions lead to an upfield shift of the ^17O signals of H2O in a manner proportional to both the concentration of Dy^3+ and q. Moreover, this lanthanide-induced shift is largely insensitive to the non-water ligands coordinated to the paramagnetic metal center.^114 Dysprosium-induced shift (DIS) experiments for CG2 and CG3 were performed in 20 mM HEPES buffered to pH 7; CG4 and CG5 spectra were acquired in 10% acetonitrile in 20 mM HEPES buffered to pH 7 owing to solubility and stability of the Cu^+-bound complexes at higher Dy^3+ concentrations required for the DIS measurements (1-200 mmol/kg H2O). Dy concentrations were calculated using molality (with respect to H2O) since the ^17O shift represents the interaction between Dy^3+ and H2O; addition of CH3CN aids in stabilizing certain complexes but should not affect the DIS. The spectral results were calibrated to a DyCl3 standard (q=9) to determine the number of bound water molecules for the CG sensors with and without added Cu^+. A plot of varying DyCl3 concentrations versus DIS in pH 7 HEPES buffer has a slope of 324 ppm/(mol/kg H2O), which corresponds to a 36 ppm/(mol/kg H2O) shift per bound water molecule.
# The effects of DyCG2 on the chemical shift of ^17O-labeled H2O were determined in the absence and presence of 1 equiv Cu^+ at various concentrations of Dy^3+ (FIG. 8). In the absence of Cu^+, the measured ^17O shift response for DyCG2 is 9 ppm/(mol/kg H2O), corresponding to q=0.3. When 1 equiv of Cu^+ is added, the observed shift response increases to 72 ppm/(mol/kg H2O), corresponding to q=2.0. […] DIS measurements of DyCG4 and DyCG5 without Cu^+ show slopes of 7 ppm/(mol/kg H2O) (q=0.2) and 12 ppm/(mol/kg H2O) (q=0.3), respectively. Cu^+ binding increases the DIS slopes for DyCG4 and DyCG5 to […] ([…]) and 41 ppm/(mol/kg H2O) (q=1.0), respectively.
# [3] = Electrochemical Cu2+/Cu+ reduction potentials of copper-bound CG complexes; type: physicochemical; settings: PBS buffer, pH 7.4
# Experimental: CG6 is a unique member of the CG family that is equally responsive to both Cu^+ and Cu^2+. Addition of either Cu^+ or Cu^2+ to CG6 triggers a maximum 73% relaxivity turn-on from r1=2.2 mM^−1s^−1 to r1=3.8 mM^−1s^−1. […] On the other hand, copper-bound CG6, which responds to both Cu^+ and Cu^2+, has the least positive Cu^2+/Cu^+ reduction potential at +0.13 V.
# [4] = Apparent Kd for Cu+ by UV-visible absorption with competing ligand thiourea; type: binding; settings: 20 mM HEPES buffer, pH 7, 25° C., 1:1 stoichiometry assumed, read-out: Kd (apparent dissociation constant)
# Experimental: FIG. 5. Normalized absorbance response of 0.2 mM CG2-6 to buffered Cu^+ (CG2-5) or Cu^2+ (CG6) solutions for Kd value determination. Spectra were acquired in 20 mM HEPES, pH 7.
# [5] = Metal ion selectivity of relaxivity response (competing metal ions alone or with added copper); type: physicochemical; settings: relaxivity at 60 MHz, 20 mM HEPES, pH 7, 37° C.
# Experimental: FIG. 6. Relaxivity responses of CG2 to various metal ions. White bars represent the addition of an excess of the appropriate metal ion (10 mM for Na^+, 2 mM for K^+, Mg^2+, and Ca^2+, and 0.2 mM for Fe^2+, Fe^3+, Cu^2+) to a 0.2 mM solution of CG2. Response to Zn^2+ was measured both at 0.2 mM Zn^2+ (Zn^2+1×) and 2 mM Zn^2+ (Zn^2+10×). Black bars represent the subsequent addition of 0.2 mM Cu^+ to the CG2 solution. Relaxivity measurements were acquired at 37° C. in 20 mM HEPES buffer, pH 7, at a proton Larmor frequency of 60 MHz.
# The potential ability of this new family of CG sensors to sense bioavailable copper pools in either or both its predominant oxidation states represents a significant advance over the initial CG1 compound.
# [6] = Longitudinal relaxivity (r1) turn-on response to Cu+ from T1 measurements at 60 MHz; type: physicochemical; settings: pH 7, 37° C.; for r1 (1 equiv Cu): 20 mM HEPES buffer
# Experimental: as §1
# Upon addition of up to 1 equiv of copper ions, the relaxivity values of the CG contrast agents increase, establishing the ability of these probes to sense copper using the MR modality (Table 1, FIG. 3). CG2, CG3, CG4, and CG5 respond to Cu^+ with relaxivity increases ranging from 92% to 360%. […] These values represent the largest relaxivity enhancements observed to date for metal-activated MR contrast agents and a ca. 9-fold improvement in copper ion response compared to CG1 (41% increase). The observed differences in turn-on Cu^+ responses for benzyl-substituted CG4 (290% increase) versus methyl-substituted CG5 (92% increase) with the same pyridyl-thioether receptor show the marked effects that small peripheral substitutions can have on relaxivity properties.
# [7] = Nuclear magnetic relaxation dispersion (NMRD) profiles, Solomon-Bloembergen-Morgan fit; type: physicochemical; settings: copper free; for r1p 20 MHz 25° C.: 0.5 mM, 20 mM HEPES pH 7; for a (distance of closest approach of outer-sphere water protons) / Δ^2 (average quadratic transient zero field splitting) / τv (electronic correlation time): best-fit value; for q: fixed in the fitting procedure; for τR (rotational correlation time): not experimentally determined, assumed equal to corresponding q ≠ 0 complex (CG5: average of the other complexes)
# Experimental: FIG. 9. ^1H Nuclear magnetic relaxation dispersion profiles of CG3 and CG3+Cu^+ acquired at 25° C. The solid lines represent the best fit profiles.
# As a secondary, independent set of experiments to further probe the mechanisms of copper ion sensing by the CG contrast agents, we also performed nuclear magnetic relaxation dispersion (NMRD) measurements of these sensors in the absence and in the presence of copper ions using a field cycling relaxometer (FIG. 9). The profiles obtained were analyzed following Solomon-Bloembergen-Morgan theory^36-38 for the inner-sphere relaxivity and the Freed model^115 for the outer-sphere relaxivity, fixing the diffusion coefficient (D) at […], the distance between Gd^3+ and the inner sphere water protons (r) at 3.1 Å, and the inner sphere exchange lifetime (τM) at 160 ns, the reported value for the parent complex Gd^3+-DO3A. Profiles were obtained for all compounds in the copper-free state. Profiles in the presence of Cu^n+ were obtained for CG2-4 (Cu^+) and CG6 (Cu^2+).
# In fact, the measured outer-sphere relaxivities were so low that, in order to obtain a reasonable fit, the distance of closest approach of outer-sphere water protons (a) was allowed to vary. The distances obtained for the CG complexes (4.2-4.8 Å) were markedly longer than what is observed for typical Gd^3+ contrast agents with greater water access (3.8-4 Å). These values correlate with the copper-free relaxivities of CG2-6; longer a values give lower relaxivities and shorter a values give higher relaxivities. For Cu^+-sensing agents CG2-4, the estimated change in q of 2 as determined by DIS measurements was also observed in the fitted NMRD data. In fact, any attempt to fit the observed NMRD profiles with q=1 led to very poor agreement between experimental and calculated values. The change in q of 1 for CG6 upon addition of Cu^2+ as determined by NMRD is consistent with the lower turn-on response observed with this complex compared to CG2-4. The reduced q modulation for CG6 relative to CG2-4 could indicate that the carboxylic acid moiety used for Cu^2+ binding also interacts with the Gd^3+ center in the Cu^2+-bound state. The fitted rotational correlation times (τR) for copper-bound CG complexes all fall within the range expected for Gd^3+ complexes with molecular weights of 700-800 D. τR values for copper-free CG2-6 were fixed to values close to their copper-bound analogues as fits of NMRD data for q=0 complexes are not sensitive to small changes in τR. The values of Δ^2 (average quadratic transient zero field splitting), τv (electronic correlation time), and τs0 (electronic relaxation time at zero field), which govern the electronic relaxation time, are relatively similar to each other. These NMRD values are closer to those of Gd^3+-DTPA than Gd^3+-DOTA, reflecting the asymmetry of CG2-6.^64
relaxivity ([1]; 20 mM HEPES buffer at 60 MHz and 37° C.),−Δ ppm/[Dy] (DIS slope) ([2]; 1 equiv Cu^+),"q (estimated number of inner-sphere water molecules) ([2]; 1 equiv Cu^+, calculated from q = 9 DyCl3)",−Δ ppm/[Dy] (DIS slope) ([2]; no Cu^+),Cu^2+/+ E1/2 [3],Kd [4],r1 (no Cu) [1],r1 (1 equiv Cu) [6],τs0 (electronic relaxation time at zero field) [7],r1p 20 MHz 25° C. [7],a (distance of closest approach of outer-sphere water protons) [7],Δ^2 (average quadratic transient zero field splitting) [7],τv (electronic correlation time) [7],q [7],τR (rotational correlation time) [7],Compound,redox specificity of relaxivity response (Cu^+ vs Cu^2+) [5],"% increase in r1 ([6]; 1 equiv Cu^+ vs no Cu, 20 mM HEPES)"
< 0.1 mM⁻¹ s⁻¹,–,–,–,–,–,–,–,–,–,–,–,–,–,–,O=S(=O)([O-])[O-].[Cu+2] [CuSO4],–,–
–,84 ppm/(mol/kg H2O),2.1,7 ppm/(mol/kg H2O),–,–,–,–,–,–,–,–,–,–,–,CCSCCN(Cc1ccccc1)Cc1cccc(CN2CCN(CC(=O)[O-])CCN(CC(=O)[O-])CCN(CC(=O)[O-])CC2)n1.[Dy+3] [DyCG4],–,–
–,–,–,–,0.34 V vs. SHE,0.032 nM,1.2 mM⁻¹ s⁻¹,2.3^b mM^−1s^−1,95 ps,1.6 mM⁻¹ s⁻¹,4.8 ± 0.12 Å,3.5 ± 0.8 10^19 s^−2,25 ± 4.2 ps,0^c,100^e ps,CCSCCN(C)Cc1cccc(CN2CCN(CC(=O)[O-])CCN(CC(=O)[O-])CCN(CC(=O)[O-])CC2)n1.[Gd+3] [CG5],give turn-on relaxivity increases with Cu^+ but do not respond to Cu^2+,92%
–,–,–,–,0.58 V vs. SHE,–,1.5 mM⁻¹ s⁻¹,6.9 mM^−1s^−1 and 6.9^b mM^−1s^−1,96 ps,1.6 mM⁻¹ s⁻¹,4.7 ± 0.09 Å,3.2 ± 0.7 10^19 s^−2,27 ± 4.4 ps,0^c,130^d ps,O=C([O-])CN1CCN(CC(=O)[O-])CCN(Cc2cccc(CN3CCSCCSCCSCC3)n2)CCN(CC(=O)[O-])CC1.[Gd+3] [CG3],give turn-on relaxivity increases with Cu^+ but do not respond to Cu^2+,–
